Data as given in patent US20170216315A1 (priority 2016, published 2017).
Marks after values point to notes of the source that are not given here.

How the values were obtained:
[1] = tested on: Superoxide dismutase (SOD); assay: Activity of SOD in mouse liver; type: in vivo, mice; settings: for Activity of SOD: liver homogenate, alcoholic liquid diet, 4 weeks
[2] = tested on: aspartate aminotransferase (AST); assay: Activity of AST in serum; type: in vivo, mice; settings: EK100 1, 5, 10 mg/kg/day vs EtOH group; p<0.05; FIG. 8
Text: It has been known that both aspartate aminotransferase (AST) and alanine aminotransferase (ALT) are amino acid metabolic enzymes, which are widely present in the heart, liver, skeletal muscle, kidney and brain. When cells in organs are injured, AST and ALT will be released into the blood. Therefore, the activities of AST and ALT can be used as the injury markers of the above organs to detect organ injuries, wherein the higher activities of AST and ALT represent that organ injuries are more serious. For example, there is much more ALT in the liver. A higher activity of ALT in the liver would indicate a more serious injury.
To understand the effects of alcohol consumption and ergostatrien-3β-ol intake on the injury conditions of mice organs, mouse serum samples of each group provided in [Preparation Examples] C-2 (200 μl per group) were placed into automatic dry-biochemistry analyzer (Arkray, Inc., Japan, Spotechem™ EZ, SP-4430) with AST/ALT expert analytic test paper (Arkray, Inc., Japan, Spotechem™ II) to detect the activities of AST and ALT.

male C57BL/6 mice [3] = assay: Appearance and H&E staining of mouse liver; type: in vivo; settings: EK100 1, 5, 10 mg/kg/day vs EtOH group
Protocol: C-4. After “C-3” was completed, the mice were sacrificed. The weights of the mice hearts, livers, kidneys, spleens, and abdominal and epididymal fat pads were measured and recorded; the mice livers were washed with sterilized saline, and then the liver appearances were recorded by a camera. The collected organs and feces were stored at −80° C. for the following analysis (recording, sample collection and storage were conducted for all of the 8 mice from each group).
The photographs of the mouse liver appearance of each group recorded in [Preparation Examples]
Additionally, the photographs of stained mouse liver of each group recorded in [Preparation Examples]

TNF-α = assay: Concentration of TNF-α in liver (ELISA); type: in vivo, mice; settings: EK100 1, 5, 10 mg/kg/day vs EtOH group; p<0.05; FIG. 9A
Text: D-3 were taken and diluted with Calibrator Diluent RD 5-17 to ⅓ of the original concentration respectively, and then a Quantikine® Rat TNF-α or a Quantikine® Rat IL-1β commercial kit (purchased from R&D Systems company, United States) was used for the Enzyme-linked immune-sorption assay (ELISA) to measure the amounts of tumor necrosis factor-alpha (TNF-α) and interleukin-1β (IL-1β) therein. […]

CYP2E1 = assay: Protein expression of CYP2E1 in liver (western blot); type: in vivo, mice; settings: EK100 1, 5, 10 mg/kg/day vs EtOH group, p<0.05, FIGS. 13A, 13B
[4] = Alcohol concentration in mouse serum; type: in vivo, mice; settings: EK100 1, 5, 10 mg/kg/day vs EtOH group; p<0.05; FIG. 15
Protocol: C-3. At the end of week 4, the mice were fasted for 8 hours. Then, mice blood was collected by orbital sinus blood collection with capillary blood collection needles (for all of the 8 mice from each group). The mice blood was left standing for 1 hour and then centrifuged by a refrigerated microcentrifuge (Kubota corporation, model number: 3700) to separate the supernatant serum. The supernatant serum was stored at −80° C. for the following analysis.
Mouse serum samples of each group provided in [Preparation Examples] C-2 were well mixed with ADH and NAD^+ reagents in a commercial kit (Dade-Berhring company, England, Emit® II Plus Ethyl alcohol assay), and then the alcohol concentrations in the above serum samples were measured by an automatic biochemistry analyzer (Olympus company, Japan, AU2700) at 340 nm wavelength.

[5] = tested on: PPAR-α, RXR-α, CPT1, UCP2; assay: Expressions of fatty acid β-oxidation-promoting genes in liver (real-time PCR); type: in vivo, mice; settings: EK100 1, 5, 10 mg/kg/day vs EtOH group, p<0.05, FIG. 5
Protocol: C-4 was put into a 0.8 ml RNAlater containing an RNA stabilizer (Qiagen company, United States), and then the commercial kit (E.Z.N.A™ Tissue RNA kit, purchased from Omega Bio-Tek company, United States) was used to extract the mRNA therein. After that, the mRNA sample obtained therefrom was reverse transcribed to provide cDNA, and then specific primers (as shown in Table 2) were used to conduct real-time polymerase chain reaction (real-time PCR) of the cDNA to observe the expression of each gene in the mouse liver, wherein the operation steps of the real-time polymerase chain reaction were as follows: (i) 2 μl of cDNA (50 ng/μl), 5 μl of SYBR Green (Molecular Probes company, United States, Applied Biosystems/Fast SYBR® Green Master Mix), 2 μl of RNase-free water, 1 μl of forward primer, and 1 μl of reverse primer were well mixed and then centrifuged; (ii) the above sample was put into a real-time polymerase chain reaction system (Applied Biosystems/StepOne Real time PCR system) to detect the expression of each gene, wherein the expression of GAPDH was used as the positive control.
Therefore, the expressions of the above genes in the mouse liver of each group were compared by the analysis method of [Preparation Examples]

male C57BL/6 mice [6] = assay: Amounts of TAG, TC and bile acid in feces; type: in vivo; settings: EK100 1, 5, 10 mg/kg/day vs EtOH group, feces of end of week 3, p<0.05

With CC(C)[C@@H](C)/C=C/[C@@H](C)[C@H]1CC[C@H]2C3=CCC4C[C@@H](O)CC[C@]4(C)C3=CC[C@]12C (some centres unmarked) [EK100] the “Activity of SOD in liver compared to EtOH” value ([1]; EK100 10 mg/kg/day (EK100_10X) vs EtOH group, p<0.05) was “significantly increased”, the “Activity of SOD” value ([1]; EK100_1X: 1 mg/kg/day gavage) was 77.56 ± 3.33^c munit/mg protein and the “Activity of SOD” value ([1]; EK100_5X: 5 mg/kg/day gavage) was 90.40 ± 6.16^b munit/mg protein. For the same compound, the “Activity of SOD” value ([1]; EK100_10X: 10 mg/kg/day gavage) was 118.47 ± 4.64^a munit/mg protein, the “Activity of AST in serum compared to EtOH” value [2] was “significantly decreased” and the “Number of fat vacuoles in liver tissue compared to EtOH” value (male C57BL/6 mice [3]; H&E staining, FIGS. 7A-7E) was “markedly decreased”. The “Whitening phenomenon of liver compared to EtOH” value (male C57BL/6 mice [3]; liver appearance, FIGS. 6A-6E) was “decreased”, the “Concentration of TNF-α in liver compared to EtOH” value (TNF-α) was “significantly decreased” and the “Protein expression of CYP2E1 in liver compared to EtOH” value (CYP2E1) was “significantly decreased”. For the same compound, the “Alcohol concentration in serum compared to EtOH” value [4] was “significantly decreased”, the “Expressions of fatty acid β-oxidation-promoting genes in liver compared to EtOH” value [5] was “significantly increased” and the “Amount of TAG in feces compared to EtOH” value (male C57BL/6 mice [6]; FIG. 2C) was “significantly increased”. For the same compound, the “Amount of TC in feces compared to EtOH” value (male C57BL/6 mice [6]; FIG. 2C) was “significantly increased” and the “Amount of bile acid in feces compared to EtOH” value (male C57BL/6 mice [6]; FIG. 3) was “significantly increased”.
